The values that follow are results of earlier work, collected in PMC10975502 (Methods in molecular biology (Clifton, N.J.), 2022).

For the series the following is noted: result in words.

cyclo(FfΦRrRrQ) [CPP12]: the “activity in cytosolic delivery” value is recorded as “high activity”.
